Source: patent US6423740B1, “Chalcones having antiproliferative activity” (Indena S.p.A., priority 1997, dated 2002)

Key:
MDA-MB231 = test: Antiproliferation activity in vitro, cell count after 72 hours, sensitive breast tumoral line; assay type: cell-based; conditions: MDA-MB-231, MDA-MB231 sensitive human breast tumoral line, read-out: IC50 (MDA-MB231), concentration causing 50% inhibition of the cell proliferation
Method: (§1) The various compounds under test, dissolved in ethyl alcohol, were added at serial dilutions and the treated cells and control cells were incubated with ^3H-estradiol or in the presence of diethylstilbestrol according to the methods described by literature. The antiproliferation activity were verified in the same way by adding the compounds, dissolved in DMSO, to the medium and performing a cell count after 72 hours.

MCF7 ADRr = test: Antiproliferation activity in vitro, cell count after 72 hours, adriamycin-resistant breast tumoral line; assay type: cell-based; conditions: MCF7 ADRr adriamycin-resistant human breast tumoral line, read-out: IC50 (MCF7 ADRr), concentration causing 50% inhibition of the cell proliferation
Method: as §1

[1] = tested on: type II estrogen receptors; test: Binding to type II estrogen receptors, displacement of 3H-estradiol in tumor cells; conditions: read-out: IC50, concentration causing 50% displacement of the estradiol labelled by its own receptor
Method: The binding to type II estrogen receptors was evaluated in ovarian tumor cells and tumor cells of other target organs. The cells were grown in a single layer according to the known techniques reported in the literature. To make the test reproducibility, the cells were trypsin treated, every week and placed on plates at a density of 8×10^4 cells/cm^2 and incubated at 37° C. in air containing 5% CO2.
as §1

Row | Compound | melting point [°C] | IC50 (MDA-MB231) [µM] | IC50 (MCF7 ADRr) [µM] | IC50 [1] [µM]
1 | C=C(C)COc1ccc(C(=O)C=Cc2ccc(N(C)C)cc2)c(O)c1 [Compound IV, 1-[2-hydroxy-4-(2-methylallyloxy)-phenyl]-3-(4-dimethylaminophenyl)-propen-1-one] | 85 to 87 | 7.5 | 9.4 | 1.7
2 | C=C(C)COc1ccc(C(=O)C=Cc2c[nH]c3ccccc23)c(O)c1 [Compound VI, 1-[2-Hydroxy-4-(2-methylallyloxy)-phenyl]-3-(indole-3-yl)-propen-1-one] | – | 9.6 | 8.8 | 3.4
3 | C#CCOc1ccc(C(=O)C=Cc2c[nH]c3ccccc23)c(O)c1 [Compound VII, 1-[2-hydroxy-4-(prop-2-ynyloxy)-phenyl]-3-(indole-3-yl)propen-1-one] | – | 7.1 | 9.4 | 5.2
4 | C=C(C)COc1ccc(C(=O)C=Cc2cccnc2)c(O)c1 [Compound VIII, 1-[2-Hydroxy-4-(2-methylallyloxy)-phenyl]-3-(pyridine-3-yl)-propen-1-one] | 164 to 166 | 5.4 | 6 | 4
5 | C#CCOc1ccc(C(=O)C=Cc2cccnc2)c(O)c1 [Compound X, 1-[2-hydroxy-4-(prop-2-ynyloxy)-phenyl]-3-(pyridine-3-yl)propen-1-one] | 115 to 117 | 3.7 | 3.7 | 2.8
6 | C=C(C)COc1ccc(C(=O)C=Cc2cccs2)c(O)c1 [Compound XII, 1-(2-Hydroxy-4-(2-methylallyloxy)-phenyl)-3-(2-thienyl)-propen-1-one] | – | 5.3 | 3.9 | 2.7
7 | C#CCOc1ccc(C(=O)C=Cc2cccs2)c(O)c1 [Compound XIII, 1-(2-Hydroxy-4-(prop-2-ynyloxy)-phenyl)-3-(2-thienyl)-propen-1-one] | – | 4.9 | 5.1 | 4.3
8 | C=C(C)COc1ccc(C(=O)C=Cc2ccccc2)c(O)c1 [Compound XV, 1-(2-Hydroxy-4-(2-methylallyloxy)-phenyl)-3-(phenyl)-propen-1-one] | – | 10.7 | 7.1 | 2.9
9 | C#CCOc1ccc(C(=O)C=Cc2ccccc2)c(O)c1 [Compound XVI, 1-(2-Hydroxy-4-(prop-2-ynyloxy)-phenyl)-3-(phenyl)-propen-1-one] | – | 8.9 | 8.4 | 4.4
10 | C=C(C)COc1ccc(C(=O)C=Cc2ccc(OC)cc2OC)c(O)c1 [Compound XVII, 1-(2-Hydroxy-4-(2-methylallyloxy)-phenyl)-3-(2,4-dimethoxyphenyl)-propen-1-one] | 106 to 107 | 4.3 | 5.6 | 5.5
11 | C=C(C)COc1ccc(C(=O)C=Cc2ccc(Br)cc2)c(O)c1 [Compound XVIII, 1-(2-Hydroxy-4-(2-methylallyloxy)-phenyl)-3-(4-bromophenyl)-propen-1-one] | 121 to 122 | – | – | –
12 | C#CCOc1ccc(C(=O)C=Cc2c(OC)cc(OC)cc2OC)c(O)c1 [Compound XXIII, 1-(2-Hydroxy-4-(prop-2-ynyloxy)-phenyl)-3-(2,4,6-trimethoxyphenyl)-propen-1-one] | 177 to 179 | – | – | –
13 | C#CCOc1ccc(C(=O)C=Cc2ccc(C#N)cc2)c(O)c1 [Compound XXIV, 1-(2-Hydroxy-4-(prop-2-ynyloxy)-phenyl)-3-(4-cyanophenyl)-propen-1-one] | 188 to 190 | – | – | –

Results, then the compound that gave them:

Row | melting point [°C] | IC50 (MDA-MB231) [µM] | IC50 (MCF7 ADRr) [µM] | IC50 [1] [µM] | Compound
14 | 99 to 100 | 3.2 | 2.8 | 1.1 | CC(C)=CCOc1ccc(C(=O)C=Cc2ccncc2)c(O)c1 [Compound I, 1-[2-Hydroxy-4-(3-methylbut-2-enyloxy)-phenyl]-3(pyridine-4-yl)-propen-1-one]
15 | 177 to 179 | 3.2 | 2.2 | 3.3 | CC(C)=CCOc1ccc(C(=O)C=Cc2cccnc2)c(O)c1 [Compound II, 1-[2-Hydroxy-4-(3-methylbut-2-enyloxy)-phenyl]-3(pyridine-3-yl)-propen-1-one]
16 | – | 8.2 | 7 | 4.2 | CC(=O)Nc1ccc(C=CC(=O)c2ccc(OCC=C(C)C)cc2O)cc1 [Compound III, 1-[2-hydroxy-4-(3-methylbut-2-enyloxy)-phenyl]-3-(4-acetamidophenyl)-propen-1-one]
17 | 97 to 100 | 5 | 8.9 | 3.1 | C=C(C)COc1ccc(C(=O)C=Cc2cccc(OC)c2)c(O)c1 [Compound IX, 1-[2-hydroxy-4-(2-methylallyloxy)-phenyl]-3-(3-methoxyphenyl)-propen-1-one]
18 | – | 11 | 6.8 | 2.8 | CC(C)=CCOc1ccc(C(=O)C=Cc2c[nH]c3ccccc23)c(O)c1 [Compound V, 1-[2-hydroxy-4-(3-methylbut-2-enyloxy)-phenyl]-3-(indole-3-yl)-propen-1-one]
19 | – | 4.1 | 3.6 | 1.4 | CC(C)=CCOc1ccc(C(=O)C=Cc2cccs2)c(O)c1 [Compound XI, 1-(2-Hydroxy-4-(3-methylbut-2-enyloxy)-phenyl)-3-(2-thienyl)-propen-1-one]
20 | – | 5.7 | 6.3 | 3.2 | CC(C)=CCOc1ccc(C(=O)C=Cc2ccco2)c(O)c1 [Compound XIV, 1-(2-Hydroxy-4-(3-methylbut-2-enyloxy)-phenyl)-3-(2-furyl)-propen-1-one]
21 | 96 to 97 | – | – | – | CC(C)=CCOc1ccc(C(=O)C=Cc2ccc(F)cc2)c(O)c1 [Compound XIX, 1-(2-Hydroxy-4-(3-methylbut-2-enyloxy)-phenyl)-3-(4-fluorophenyl)-propen-1-one]
22 | 125 to 126 | – | – | – | CC(C)=CCOc1ccc(C(=O)C=Cc2cccc([N+](=O)[O-])c2)c(O)c1 [Compound XX, 1-(2-Hydroxy-4-(3-methylbut-2-enyloxy)-phenyl)-3-(3-nitrophenyl)-propen-1-one]
23 | 101 to 102 | – | – | – | CC(C)=CCOc1ccc(C(=O)C=Cc2c(Cl)cccc2Cl)c(O)c1 [Compound XXI, 1-(2-Hydroxy-4-(3-methylbut-2-enyloxy)-phenyl)-3-(2,6-dichlorophenyl)-propen-1-one]
24 | 122 to 123 | – | – | – | CC(C)=CCOc1ccc(C(=O)C=Cc2ccc(C(F)(F)F)cc2)c(O)c1 [Compound XXII, 1-(2-Hydroxy-4-(3-methylbut-2-enyloxy)-phenyl)-3-(4-trifluoromethylphenyl)-propen-1-one]
25 | 108 to 109 | – | – | – | CC(C)=CCOc1ccc(C(=O)C=Cc2ccc(C)cc2)c(O)c1 [Compound XXV, 1-(2-Hydroxy-4-(3-methylbut-2-enyloxy)-phenyl)-3-(4-methylphenyl)-propen-1-one]
26 | 130 to 131 | – | – | – | CSc1ccc(C=CC(=O)c2ccc(OCC=C(C)C)cc2O)cc1 [Compound XXVI, 1-(2-Hydroxy-4-(3-methylbut-2-enyloxy)-phenyl)-3-(4-methylthiophenyl)-propen-1-one]
